Consider one molecule from paper PMC12163657 (ACS Omega, 2025).

Data set [1] relates to E2-induced uterine wet weight. The experiment in a line: Ovariectomized mouse uterine wet weight study. As to conditions: dose giving 50% inhibition of E2-induced uterine wet weight; oral, once daily, 3 days. In kind it is in vivo.
The next data set addresses T1, ERα LBD (Homo sapiens, UniProt P03372).
T1 sequence (P03372 311-547 limits assumed): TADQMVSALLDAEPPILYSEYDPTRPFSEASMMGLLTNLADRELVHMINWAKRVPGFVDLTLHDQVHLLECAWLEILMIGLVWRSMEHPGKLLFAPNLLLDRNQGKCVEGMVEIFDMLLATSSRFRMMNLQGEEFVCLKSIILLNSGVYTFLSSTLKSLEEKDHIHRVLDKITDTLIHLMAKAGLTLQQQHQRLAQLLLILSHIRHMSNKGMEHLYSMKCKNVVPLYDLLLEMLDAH
Briefly: LanthaScreen TR-FRET ERα competitive binding assay.

Data set [2] can be described thus: Human hepatocyte stability. In kind it is in vitro ADME. As to conditions: hepatocytes.
Data set [3] can be described thus: In vivo mouse oral single dose PK.
A short description of data set [4]: Plasma protein binding, rapid equilibrium dialysis, mouse plasma. The class given is in vitro ADME. The conditions noted are these: undiluted plasma.
Data set [5] is described as follows: Mouse hepatocyte stability. The conditions noted are these: hepatocytes. In kind it is in vitro ADME.
Another data set addresses T2, ERα (Homo sapiens, UniProt P03372).
T2 sequence (P03372 1-595): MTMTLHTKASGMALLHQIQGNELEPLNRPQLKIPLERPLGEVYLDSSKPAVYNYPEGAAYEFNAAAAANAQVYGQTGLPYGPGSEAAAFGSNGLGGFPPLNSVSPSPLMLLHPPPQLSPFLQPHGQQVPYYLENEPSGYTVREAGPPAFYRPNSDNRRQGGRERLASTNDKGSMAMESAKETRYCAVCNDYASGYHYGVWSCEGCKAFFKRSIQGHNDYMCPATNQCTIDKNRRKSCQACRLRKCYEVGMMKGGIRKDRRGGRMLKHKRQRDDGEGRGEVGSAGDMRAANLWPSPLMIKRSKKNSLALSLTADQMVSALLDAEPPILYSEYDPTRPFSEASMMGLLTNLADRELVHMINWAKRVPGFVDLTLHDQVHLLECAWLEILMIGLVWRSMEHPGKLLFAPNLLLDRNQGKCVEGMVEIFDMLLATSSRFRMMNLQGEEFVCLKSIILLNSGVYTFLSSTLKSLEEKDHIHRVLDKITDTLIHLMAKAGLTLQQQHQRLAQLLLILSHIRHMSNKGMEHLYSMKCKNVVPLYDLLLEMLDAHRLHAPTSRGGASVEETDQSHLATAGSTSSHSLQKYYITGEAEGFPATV
The experiment in a line: Alkaline phosphatase. In kind it is cell-based.

For the molecule `C[C@@H]1Cc2c([nH]c3ccccc23)[C@@H](c2ccc(OCCN3CC(CF)C3)cc2)N1CC(C)(C)F` [compound 23, C[C@@H]1Cc2c([nH]c3ccccc23)[C@H](N1CC(C)(C)F)c1ccc(cc1)OCCN1CC(CF)C1], the “uterine wet weight ID50” value in data set [1] is <0.1 mg/kg. The IC50 at ERα LBD is 1.58 nM; against ERα it was 1.26 nM. Besides, the half-life in data set [2] is 3.82 h; in data set [3] (plasma, po) it was 7 h; in data set [5], 5.37 h. Also, the hepatocyte CLint came out at 6.1 µL/min/1e6 cells in data set [2] and 4.3 µL/min/1e6 cells in data set [5]. In data set [3] (oral single dose), the “total AUCinf” value stood at 2289 ng·h/mL. Besides, the “free AUCinf” value in data set [3] (oral single dose, estimated based on the percent free fraction) is 3.9 ng·h/mL. This molecule also gave a Cmax in data set [3] (plasma, po) of 186 ng/mL. Moreover, the fraction unbound at 4 h, 1 µM in data set [4] was determined as 0.0017.
